Where a name gives a salt, the structure may show the parent alone.
Legend:
[1] = tested on: HT-29 colon tumor xenograft; experiment: HT-29 tumor xenograft model, subcutaneous administration of Chk1 inhibitor; assay type: in vivo, nude mice
Experimental: (§1) The ability of Chk1 inhibitors to potentiate tumor killing by DNA damaging agents can be determined in vivo using the Calu-6 lung and HT-29 colon tumor xenograft efficacy models. Calu-6 lung cancer cells are cultured in growth media (MEM with Earle's Balanced Salt Solution with L-glutamine supplemented with 10% (v/v) heat inactivated FBS, 1×MEM non-essential amino acids, 1× sodium pyruvate) and HT-29 colon cancer cells (ATCC) are cultured in growth media, (McCoy's 5A medium supplemented with 10% FBS) and expanded.
(§2) Cells are harvested and washed twice with phosphate buffered saline and 5×10^6 cells (HT-29) or 1×10^6 a cells (Calu-6) in growth media (without serum) are mixed with equal volume of BD Matrigel™ matrix, then injected subcutaneously into the flank of nude mice (CD-1 nu/nu).
(§3) At about day 16 after implant ([…]), gemcitabine is formulated fresh in saline daily and administered to animals by intraperitoneal route at 60 mg/kg dose. Twenty four hours later animals are administered the compound of Example 3, in 0.2% Tween-80/0.5% methylcellulose subcutaneously BID. After […], dosing is repeated for three additional cycles (Q4Dx4 with the compound of Example 3 offset+24 hours), Tumor growth inhibition (TGI) is calculated as the percent reduction in mean tumor size of a compound treated group from the mean tumor size of the vehicle-treated control group. Compounds within the scope of the invention are tested in this assay run substantially as above.

[2] = tested on: Calu-6 lung tumor xenograft; experiment: Calu-6 tumor xenograft model, subcutaneous administration of Chk1 inhibitor; assay type: in vivo, nude mice
Experimental: as §1, §2, §3

[3] = biological target: T1, Chk1 (Homo sapiens, UniProt O14757); experiment: Chk1 in vivo target inhibition assay (Calu-6 xenograft, phospho-Chk1 ser296); parameters: from tissue; host or cells: Calu-6 xenograft tumour from nude mice; species or system nude mice; conditions: Calu-6 tumors, oral, 6 h after gemcitabine 150 mg/kg ip, 2 h post dose
T1 sequence (O14757 1-476): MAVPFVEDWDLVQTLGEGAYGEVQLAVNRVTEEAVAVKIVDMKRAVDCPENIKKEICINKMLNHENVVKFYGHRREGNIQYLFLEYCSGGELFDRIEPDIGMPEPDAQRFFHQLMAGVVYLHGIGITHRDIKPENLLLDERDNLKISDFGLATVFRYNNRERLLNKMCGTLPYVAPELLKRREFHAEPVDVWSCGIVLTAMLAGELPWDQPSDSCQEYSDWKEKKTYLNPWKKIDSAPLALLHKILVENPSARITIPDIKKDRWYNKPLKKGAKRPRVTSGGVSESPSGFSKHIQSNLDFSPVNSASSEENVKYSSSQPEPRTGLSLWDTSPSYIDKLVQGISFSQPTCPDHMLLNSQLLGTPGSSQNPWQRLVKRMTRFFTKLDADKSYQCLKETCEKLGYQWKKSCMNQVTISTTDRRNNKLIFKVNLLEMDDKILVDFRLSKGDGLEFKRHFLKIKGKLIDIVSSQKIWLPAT
Experimental: Calu-6 cells are cultured in growth media (MEM with Earle's Balanced Salt Solution with L-glutamine supplemented with […], 1×MEM non-essential amino acids, 1× sodium pyruvate) and expanded. Cells are harvested and washed twice with phosphate buffered saline and 1×10^6 cells in growth media (without serum) are mixed with equal volume of BD Matrigel™ matrix, then injected subcutaneously into the flank of pre-irradiated (4.5 Gy) nude mice (athymic nude). At day 15 after implant (tumor size=150-200 mm^3), gemcitabine formulated fresh in saline daily is administered to animals by intraperitoneal route at 150 mg/kg dose. […] Antigen-antibody-reporter conjugates immobilized on the membrane are detected with the Super Signal Western Femto HRP-detection reagent.
Signals are detected and captured using the FUJI LAS-4000 imaging system. Phospho-Chk1(ser296) band intensities are calculated using “Total Lab” software (Nonlinear Dynamics). The percent inhibition of the gemcitabine induced Chk1 autophosphorylation is calculated by using the following formula: % inhibition=(sample-phospho-Chk1 band—intensity average gemcitabine (Max) positive control-phospho-Chk1 band intensity)/(average negative control (Min)-phosphor-Chk1 band intensity—average gemcitabine (Max) positive control-phospho-Chk1 band intensity)×100.

COc1nc(C)ccc1-c1cc(Nc2cncc(O[C@@H]3CCCNC3)n2)[nH]n1 [Example 3, (R)-[5-(2-Methoxy-6-methyl-pyridin-3-yl)-2H-pyrazol-3-yl]-[6-(piperidin-3-yloxy)-pyrazin-2-yl]-amine acetic acid salt]
% TGI at day 38 ([1]; HT29, Example 3 40 mpk subcutaneous BID alone): 26% | anti-tumor activity in combination with gemcitabine ([1]; HT-29 xenograft, subcutaneous BID, gemcitabine 60 mg/kg ip): excellent dose dependent anti-tumor activity | increase in tumor growth inhibition over gemcitabine alone ([1]; subcutaneous, stated for HT-29 and Calu-6 models together): up to a six-fold increase in tumor growth inhibition over gemcitabine alone | % TGI at day 47 ([2]; Calu 6, Example 3 40 mpk subcutaneous BID alone): −19% | anti-tumor activity in combination with gemcitabine ([2]; Calu-6 xenograft, subcutaneous BID, gemcitabine 60 mg/kg ip): excellent dose dependent anti-tumor activity | Target Modulatory Effective Dose 50 (TMED50) for Chk1 autophosphorylation [3]: 1.3 mg/kg

Reference: patent US9067920B2, “Compounds useful for inhibiting Chk1” (Eli Lilly and Company, priority 2010, dated 2015)
